“Also recorded” adds a separate entry of the source.
Tests used:
top 2 = test: Inhibition of top 2-mediated relaxation of native SV40 DNA; assay type: biochemical, mouse
Procedure: (§1) DNA topoisomerase II was purified from mouse leukemia L1210 cell nuclei as described, for example, by Pommier et al. (1985), supra, and was stored at -70° C. in 40% (v/v) glycerol, 0.35 M NaCl, 5 mM MgCl2, 1 mM KH2 PO4, 0.2 mM dithiothreitol and 0.1 mM phenylmethanesulfonyl fluoride (pH 6.4). The purified enzyme yielded a single 170 kDa band after silver staining of SDS-polyacrylamide gels, in accordance with the description of Pommier et al., Cancer Res. 46: 3075-81 (1986).
Two different assays were conducted to illuminate the nature of azatoxin's effects vis-a-vis DNA relaxation. To study the inhibition of top 2 catalytic activity, topoisomerase reactions were performed with 0.4 μg native SV40 DNA in 30 μl reaction buffer for 30 minutes at 37° C. and stopped by adding SDS to a final concentration of 1% and proteinase K to 400 μg/ml, followed by incubation for 1 hour at 42° C., essentially as described by Fesen & Pommier (1989), supra. Agarose gel electrophoresis was performed in 1% gels made in Tris-Acetate-EDTA (TAE) buffer (40 mM Tris-Acetate, pH 7.6, 10 mM Na2 EDTA). Gels were run at 2 V/cm overnight, washed in water and then stained with 1 μM ethidium bromide for 45 minutes. After an additional 45 minutes destaining in 1 mM Mg2 SO4, the DNA was visualized under UV light and photographed with a Polaroid type 57 film.

[1] = test system: panel of sixty human tumor cells lines; test: Growth inhibition / cytotoxicity against NCI panel of sixty human tumor cell lines; assay type: cell-based
Excerpt: FIG. 1 is a graphical representation of results generated by testing the inhibitory activity of an illustrative compound within the present invention against panel of tumor cell lines which is a standard of the National Cancer Institute Developmental Therapeutics Program [GI50: "50% growth inhibition"; TGI: "[…]"; LC50: "50% lethal concentration"].
See Yang et al., Cancer Res. 45:5872-76 (1985), and Liu (1989), supra, at 361-63. […] Pursuant to the convention of Paull et al., J. Nat'l Cancer Inst. […] See also Monks et al., J. Nat'l Cancer Inst. 83: 757-66 (1991), and Boyd, Principles & Practice of Oncology3:1-12 (1989).
(§2) Thus, azatoxin effectively prevents tubulin polymerization in vitro at concentrations in the range of 1 to 10 μM.

[2] = molecular target: T1, purified murine leukemia top 2 (Mus musculus, UniProt Q01320); test: Sequencing of topoisomerase II cleavage sites (SV40 and c-myc DNA); assay type: biochemical; conditions: for top 2 cleavage sites induced (number/amount): SV40 and c-myc DNA, purified murine top 2
T1 construct: single 170 kDa band on silver-stained SDS-PAGE
Procedure: (§3) Chemicals, and enzymes: Azatoxin and its derivatives, as well as the demethyldesoxypodophyllotoxin (DMDP) and demethylepipodophyllotoxin (DMEP), were synthesized by conventional methods. The compounds m-AMSA and mitoxantrone were obtained from the Drug Synthesis and Chemistry Branch, National Cancer Institute, Bethesda, Md. The compounds VP-16 and VM-26 were obtained from Bristol-Myers Company (Wallingford, Conn.). Drug stock solutions were made in dimethylsulfoxide at 10 mM. Further dilutions were made in distilled water. Various other reagents, including simian virus 40 (SV40) and c-myc human DNA inserts in plasmid pBR322, restriction endonucleases, DNA topoisomerase I, T4 polynucleotide kinase, calf intestine phosphatase, agarose and polyacrylamide/bis, were purchased from Bethesda Research Laboratories (Gaithersburg, Md.), from the American Type Culture Collection (Rockville, Md.) or from New England Biolabs (Beverly, Mass.). [Gamma-^32 P]ATP was purchased from New England Nuclear Research Products (Boston, Mass.).
as §1
(§4) Preparation of end-labeled DNA fragments: DNA fragments were 5' end-labeled as described, for example, by Fesen and Pommier (1989), supra. Briefly, native DNA was first linearized with a restriction enzyme, […] then the 5'-DNA termini were dephosphorylated with calf alkaline phosphatase and labeled with [gamma-^32 P]ATP using T4 polynucleotide kinase. For double-strand breaks assays using HL-60 nuclear extract, SV40 DNA was digested with BclI endonuclease and labeled at both DNA termini. For sequencing experiments, SV40 and c-myc DNAs were first 5'-end labeled at the XhoII and XbaI restriction sites, respectively. Then, in order to generate uniquely 5'-end-labeled fragments, labeled DNA was subjected to a second enzyme digestion, PflMI for SV40, and EcoRI plus HindIII for c-myc DNA. The resulting DNA fragments were separated by agarose gel electrophoresis and isolated by electroelution. Purification by phenol-chloroform extraction and ethanol precipitation were included between each step and at the end of the labeling procedures, pursuant to Pommier et al., J. Molec. Biol. 222: 909-24 (1991).
Topoisomerase II-induced DNA cleavage reactions: DNA fragments were equilibrated with or without drug in 10 mM Tris-HCl, pH 7.5, 50 mM KCl, 5 mM MgCl2 0.1 mM EDTA, 1 mM ATP and 15 μg/ml bovine serum albumin for 5 minutes before addition of purified topoisomerase II (40 to 70 ng) or HL-60 nuclear extract in 20 μl final reaction volume. Reactions were stopped by adding sodium dodecyl sulfate (SDS) to a final concentration of 1% and proteinase K to 400 μg/ml, followed by incubation for 1 hour at 40° C.
For DNA sequence analysis, samples were precipitated with ethanol and resuspended in 2.5 μl loading buffer (80% formamide, 10 mM NaOH, 1 mM EDTA, 0.1% xylene cyanol and 0.1% bromophenol blue). Samples were heated to 90° C. and immediately loaded into DNA sequencing gels (6% polyacrylamide; 19:1, acrylamide:bis) containing 7M urea in (1×) TBE buffer. Electrophoresis was at 2500 V (60 W) for 4 hours. Gels were dried on 3M paper sheets and autoradiographed with Kodak XAR-2 film. See Pommier et al. (1991), supra.
Induction of top 2 cleavage by azatoxin was tested directly with the use of purified murine leukemia top 2. […] Sites of cleavage were also determined by DNA sequencing in the 5' flank of c-myc first intron.

tubulin = test: in vitro tubulin polymerization assay; assay type: biochemical
Procedure: as §2

SV40 DNA = test: DNA unwinding (intercalation) assay with excess topoisomerase I; assay type: biochemical, simian virus 40
Procedure: To assess DNA unwinding, see Pommier et al., Nucleic Acids Res. 15: 6713-31(1987), the DNA was relaxed first by treatment for 15 minutes with top 1 (20 units), after which the test agent was added. These steps were carried out at 37° C. DNA-agent-top 1 mixtures were incubated for an additional 30 minutes and then stopped as described above. Samples were then subjected to agarose gel electrophoresis as described above.
This was also the case for the 2 azatoxin isomers, 8 and 10, and for the demethylepipodophyllotoxins, DMDP and DMEP. Similar results were obtained with supercoiled DNA.

[3] = test system: cells (protein-linked DNA breaks); test: protein-linked DNA breaks in cells; assay type: cell-based; conditions: compared to other top 2 inhibitors
[4] = test system: top 2 (HL-60 nuclear extract); test: Induction of DNA double-strand breaks in SV40 DNA in presence of HL-60 nuclear extract; assay type: biochemical
Procedure: as §3
as §4, with “Purification by phenol-chloroform extraction and ethanol precipitation were included between each step and at the end of the labeling procedures, pursuant to Pommier et al., J. Molec. Biol. 222: 909-24 (1991).” left out
For agarose gel analysis, 3 μl (10×) loading buffer (0.3% bromophenol blue, 16% Ficoll, 10 mM Na2 HPO4) was added to each sample which was then heated at 65° C. for 1-2 minutes before loading into an agarose gel made in (1×) TBE (89 mM Tris, 89 mM boric acid, 2 mM EDTA, pH8), in accordance with Fesen & Pommier (1989), supra. […] The quantification of drug-induced DNA double-strand breaks in the presence of HL-60 nuclear extract was effected as described in the next paragraph.
Radioactive gels were counted in betascope 603 blot analyzer. […] Drug-induced cleavage was expressed as: [formula] where C. and T. are the counts for cleaved and total DNA, respectively, in presence of nuclear extract without drug.
Drug-induced DNA double-strand breaks were measured first in SV40 DNA in the presence of HL-60 nuclear extracts. […]

T1 sequence (Q01320 whole entry): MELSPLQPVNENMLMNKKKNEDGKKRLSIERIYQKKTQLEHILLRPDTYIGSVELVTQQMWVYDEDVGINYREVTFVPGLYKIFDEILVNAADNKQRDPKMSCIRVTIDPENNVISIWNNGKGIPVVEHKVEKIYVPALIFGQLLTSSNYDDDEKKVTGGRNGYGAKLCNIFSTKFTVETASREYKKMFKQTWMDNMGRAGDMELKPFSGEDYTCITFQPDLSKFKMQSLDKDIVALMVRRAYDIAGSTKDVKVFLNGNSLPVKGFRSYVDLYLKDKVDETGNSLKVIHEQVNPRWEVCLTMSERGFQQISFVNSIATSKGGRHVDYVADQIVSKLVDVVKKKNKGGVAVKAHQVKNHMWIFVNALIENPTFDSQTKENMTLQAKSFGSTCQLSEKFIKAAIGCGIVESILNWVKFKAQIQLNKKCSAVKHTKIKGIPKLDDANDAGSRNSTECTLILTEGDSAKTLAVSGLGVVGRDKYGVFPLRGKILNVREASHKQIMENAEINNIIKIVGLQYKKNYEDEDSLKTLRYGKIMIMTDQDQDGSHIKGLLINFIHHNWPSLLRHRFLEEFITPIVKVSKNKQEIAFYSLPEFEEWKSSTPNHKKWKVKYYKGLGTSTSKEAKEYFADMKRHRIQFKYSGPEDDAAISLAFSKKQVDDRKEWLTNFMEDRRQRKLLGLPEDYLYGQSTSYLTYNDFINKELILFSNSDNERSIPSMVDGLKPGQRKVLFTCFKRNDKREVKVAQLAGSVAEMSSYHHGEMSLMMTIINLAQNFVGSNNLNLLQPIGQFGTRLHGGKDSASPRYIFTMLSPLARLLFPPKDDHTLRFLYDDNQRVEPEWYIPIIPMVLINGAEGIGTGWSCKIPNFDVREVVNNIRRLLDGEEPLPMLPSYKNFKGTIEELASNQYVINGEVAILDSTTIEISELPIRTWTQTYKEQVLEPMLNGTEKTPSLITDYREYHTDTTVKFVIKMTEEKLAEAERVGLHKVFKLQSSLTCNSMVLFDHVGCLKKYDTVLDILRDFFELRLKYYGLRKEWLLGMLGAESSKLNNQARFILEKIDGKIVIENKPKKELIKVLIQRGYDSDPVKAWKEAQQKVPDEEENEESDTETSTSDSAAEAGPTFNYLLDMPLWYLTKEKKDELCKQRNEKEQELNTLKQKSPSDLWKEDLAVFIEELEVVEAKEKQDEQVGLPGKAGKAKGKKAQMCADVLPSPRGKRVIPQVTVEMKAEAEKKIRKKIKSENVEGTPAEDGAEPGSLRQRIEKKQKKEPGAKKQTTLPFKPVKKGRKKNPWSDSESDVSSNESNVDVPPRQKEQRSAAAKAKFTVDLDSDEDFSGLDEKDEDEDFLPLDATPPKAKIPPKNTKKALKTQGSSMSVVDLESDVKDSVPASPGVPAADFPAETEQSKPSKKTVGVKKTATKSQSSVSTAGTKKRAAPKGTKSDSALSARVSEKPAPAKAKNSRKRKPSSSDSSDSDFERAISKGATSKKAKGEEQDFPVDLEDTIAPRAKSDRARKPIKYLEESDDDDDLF

SMILES: COc1cc([C@@H]2c3[nH]c4ccccc4c3C[C@H]3COC(=O)N32)cc(OC)c1O [Azatoxin, 5R, 11aS-3-One-5,4,11,11a-tetrahydro-5-(3,5-dimethoxy-4-hydroxyphenyl) -1H, 6H-oxazolo[3', 4': 1,6]pyrido[3,4-b]indole]
- production of linear / nicked DNA (top 2): produce a substantial amount of linear DNA without significant increased of nicked DNA
- inhibition of top 2-mediated relaxation (top 2; 30 minutes, 37° C.): inhibits top 2-mediated relaxation of native SV40 DNA
- cytotoxicity to tumor cells (in words) ([1]; FIG. 1 means graph): cytotoxicity of aratoxin to cells associated with disseminated cancers (leukemias) as well as several consolidated cancers (non-small cell lung and colon)
- growth inhibition of human tumor cell lines (in words) ([1]; sixty cell lines: leukemia, melanoma, lung, colon, kidney, ovary, CNS): significant inhibitory activity
- top 2 cleavage potency (in words) [2]: potent top 2 inhibitor
- top 2 cleavage sites induced (number/amount) [2]: induced many cleavage sites both in the SV40 and the c-myc DNA fragments
- top 2 cleavage sites induced (number/amount) ([2]; listed as azatoxin): induced more cleavage sites than mitoxantrone, m-AMSA, VM-26 or VP-16; also recorded: induces the largest number of top 2 cleavage sites both in SV40 and c-myc DNA
- top 2 cleavage pattern ([2]; compared with other top 2 inhibitors): cleavage pattern differing from those induced by other top 2 inhibitors
- tubulin inhibition (in words) (tubulin): potent tubulin inhibitor
- DNA unwinding / intercalation conclusion (SV40 DNA): does not intercalate into DNA
- DNA unwinding (SV40 DNA; relaxed SV40 DNA, excess topoisomerase I, concentrations as high as 1 mM): did not induce detectable DNA unwinding even at drug concentrations as high as 1 mM
- inducing protein-linked DNA breaks in cells [3]: very active in inducing protein-linked DNA breaks in cells
- DNA cleavage potency (in words) ([4]; SV40 DNA, HL-60 nuclear extract, compared to VP-16): comparable to that of VP-16
- cleavage above 10 μM, concentration dependence ([4]; above 10 μM): cleavage occurred at many sites and was proportional to the logarithm of azatoxin concentration
- suppression of DNA cleavage at high drug concentrations ([4]; up to 1 mM): not suppressed at high drug concentrations (up to 1 mM)
